Measurements: PubChem BioAssay (NCI)
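Where inhibition never reached the appropriate level, the endpoint shown equals the highest concentration tested. Otherwise, values were interpolated linearly from a five-concentration, 48-hour dose response in 96-well plates. Abbreviation: GI50, concentration required for 50% inhibition of growth. TGI: total growth inhibition.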

test system: 786-0 renal; assay: inhibition of tumour cell growth, NCI panel, 48 h

SMILES | GI50 [nM] | TGI [µM]
CC(=O)OC1OC([C@@H]2c3cccc(O)c3C(=O)c3c(O)cc(C)cc32)C(O)C(O)C1O (stereo partly drawn) | 130 | 1.27
Nc1nc(-n2c(-c3ccccc3)nc3c(Br)cc(Br)cc3c2=O)nnc1-c1cccc(Cl)c1Cl | 11200 | 60.7
C[N+](C)(C)CC(=O)N/N=C(/CC(=O)CC(C1=C(O)c2ccccc2OC1)c1ccccc1)C(=O)Nc1cccc(Cl)c1 (stereo not drawn) | – | > 100
O=C1/C(=C/c2ccc(O)c(O)c2)CCC/C1=C\c1ccc(O)c(O)c1 | – | 15.5
Cc1c(C(=O)C/C(=N/NC(=O)c2ccccc2O)C(=O)Nc2ccccc2C(C)C)[n+](=O)c2ccccc2n1[O-] | – | > 100
CCCCCCCCCCCC(=O)OCCOCCOCCOCCOCCOCc1ccccc1 | – | > 100
COC(=O)/C=C1\S/C(=N\NC(=O)c2cc3ccc2/C=C\c2ccc(cc2)/C=C\3)N(c2ccccc2)C1=O | 2000 | 4.38
COC([CH2][Hg][n]1cnc2c1c(=O)n(C)c(=O)n2C)CN1C(=O)c2ccccc2S1(=O)=O (stereo not drawn) | > 100000 | > 100
CCCC1C(=O)CCc2c(OC)ccc(OC)c21 (stereo not drawn) | – | > 100
O=C(CCc1nc(=S)[nH][nH]1)Nc1cc(Cl)c(Cl)cc1Cl | – | > 100
Cc1ccc(S(=O)(=O)OC[C@@H]2CO2)cc1 | – | > 100
C=CCO[C@H]1CO[C@H]2[C@@H]1OC[C@@H]2Oc1ccc(Nc2ccnc(Nc3ccc(O[C@H]4CO[C@H]5[C@@H]4OC[C@@H]5OCC=C)c(Cl)c3)n2)cc1Cl | 1870 | 3.37
CCn1c(C)nn2c(=O)c3ccccc3nc2c1=O | – | > 100
COc1cnc2c(c1)C(=O)c1c-2n(CCCN2CCOCC2)c(=O)c2cc(F)ccc12 | 254 | 1.2
CCOC(=O)CCC1(C(=O)OCC)CCCCC1=O (stereo not drawn) | – | > 100
CCOC1Oc2ccccc2C(=O)/C1=C/Nc1ccc(C(C)=O)cc1 (stereo not drawn) | 6560 | 25.4

SMILES | GI50 [nM] | TGI [µM]
Cc1nc2c(ccc3ncccc32)[nH]1 | – | > 100
O=C(CCNC12CC3CC(CC(C3)C1)C2)c1ccccc1 | – | 31.6
COc1cccc(-c2cc(-c3cccc(NS(C)(=O)=O)c3)nc(N)c2C#N)c1O | 375 | > 100
CCN1CCN(Cc2ccc(NC(=O)c3cccc(C#Cc4cccc5[nH]nc(N)c45)c3)cc2C(F)(F)F)CC1 | 402 | 1.32
Cc1cc(N(CCC#N)CCC#N)ccc1N=Nc1ccc(S(N)(=O)=O)cc1 | – | > 100
CC(=O)[CH-]C(=O)c1ccccc1.CC(=O)[CH-]C(=O)c1ccccc1.CN(C)c1ccc([O-])cc1.CN(C)c1ccc([O-])cc1.Cl.[Ti+4] | 22800 | > 31.6
CCN(CC)N=Nc1c(C(N)=O)n[nH]c1C | – | > 100
CCC[CH2][Sn]([CH2]CCC)([S]c1cccc2cccnc12)[S]c1cccc2cccnc12 | 227 | 0.56
OCC1=CC(NC2CC(CO)C(O)C(O)C2O)C(O)C(O)C1O (stereo not drawn) | – | > 100
Nc1ccccc1S(=O)(=O)N(CC(=O)O)c1ccccc1 | – | > 100
CCOC(=O)C(C)(C)Oc1ccc2c(-c3ccccc3)cc(=O)oc2c1 | – | > 100
O=C(Nc1ccc(F)cc1)Nc1ccc(Cl)c([N+](=O)[O-])c1 | 3370 | 13.2
CNC(=S)OCCC(C)CCCC(C)C (stereo not drawn) | – | 30.9
COC1/C=C/OC2(C)Oc3c(C)c(O)c4c(O)c(c(/C=N/Nc5ccc([N+](=O)[O-])cc5[N+](=O)[O-])c(O)c4c3C2=O)NC(=O)C(C)=C/C=C/C(C)C(O)C(C)C(O)C(C)C(OC(C)=O)C1C (stereo not drawn) | 1670 | 7.02
COC(=O)/C(C#N)=C1\NC(=O)c2ccccc21 | – | > 100
Cc1ccc(NC(=O)Nc2ccc(-c3cccnc3)cc2N2CCC(CO)CC2)cc1 | 2580 | 7.25

test system: HCT-116 colon; assay: inhibition of tumour cell growth, NCI panel, 48 h

SMILES | GI50 [nM] | TGI [µM]
CN(C)c1ccc(/C=C\C2=[N+](C)c3ccccc3C2(C)C)cc1 | 320 | > 32.1
COc1cc2c(c3oc4c(O)cccc4c(=O)c13)CC(C(C)(O)CO)O2 (stereo not drawn) | – | > 100
CC(=O)OC1OC([C@@H]2c3cccc(O)c3C(=O)c3c(O)cc(C)cc32)C(O)C(O)C1O (stereo partly drawn) | 108 | 1.2
Nc1nc(-n2c(-c3ccccc3)nc3c(Br)cc(Br)cc3c2=O)nnc1-c1cccc(Cl)c1Cl | 2430 | 7.06
